# Test results: patent publication US20170183318A1, “AMIDE COMPOUNDS, METHODS FOR PREPARATION, AND USE THEREOF AS AGENTS FOR THE TREATMENT AND PREVENTION OF DISEASES CAUSED BY RNA- AND/OR DNA-CONTAINING VIRUSES, AND CONCOMITANT DISEASES” (OBSCHESTVO S OGRANICHENNOI OTVETSTVENNOSTIYU …, priority 2014, published 2017)
# Like-named read-outs stand apart in the source and are kept apart here. Starred links: 1 amine or outer side, 2 acyl side, 3 side chain; linkers in the order of their positions; H or OH if unused. Residues, ends and D or L forms follow the SMILES beside them. Glutaryl = O=C(CCCC(=O)[*:2])[*:1]
# Assays:
# [1] = tested on: herpes simplex virus belonging to antigenic type 2; assay: Murine model of experimental herpetic meningoencephalitis (mortality); format: in vivo, white outbred mice; settings: Mus musculus, po, 336 h
# Method: In the study, herpes simplex virus belonging to antigenic type 2 was used. White outbred mice weighing 7-8 g were infected i/c (intracerebrally) in a volume of 0.05 ml/mouse comprising a dose of 10LD50. The infectious dose of the virus that caused 100% mortality in mice was 10LD50. Each experimental group comprised 20 mice. Intact animals served as control and were hold in a separate room under the same conditions as the experimental animals. The antiviral activity of the compounds of general formula I was studied by oral administration of the compounds to infected mice once daily at a dose of 30 mg/kg/mouse 24, 48, 72, 96, and 120 hours after infection of the animals with the virus. The mice of the control group were administered placebo (0.2 mL of physiological solution) under the same conditions. The animals were monitored for 14 days after infection by registration the mouse death in the groups.
# Each animal was subjected to once-daily observation. The observation included the assessment of general behavior and body condition of animals. The animals were handled according to the International Standards.
# The activity of the compounds was evaluated by comparing mortality rates in the groups of animals administered a preparation and placebo.
# [2] = tested on: human virus hRSV; assay: Antiviral activity against mouse-adapted RS virus (body weight; viral titer in lungs titrated in Hep-2 cells); format: in vivo, mice; settings: for Body weight of the mice on day 5 after infection with hRSV (M ± SD) / Body weight of the mice on day 7 after infection with hRSV (M ± SD): orally once daily for 5 days, n = 6; for log reduction at 30 mg/kg: human respiratory syncytial virus, HEp-2, po
# Method: Antiviral effectiveness of the chemical compounds against RSV in an experimental murine model in vivo was determined for human virus hRSV that was previously adapted to the growth in mouse lungs. The animals were infected with the virus at a dose of 0.5 log TCID50 intranasally under brief ether anesthesia in a volume of 0.05 ml/mouse. The studied compounds were administered orally once daily for 5 days according to the treatment regimen at a dose of 30 mg/kg. The first administration was made 24 hours after infection. Normal saline solution was administered to mice as placebo. Intact animals served as a negative control and were hold in a separate room under the same conditions as the experimental animals. Each experimental group comprised 12 animals.
# The antiviral activity of the studied compounds was determined by the efficiency in the prevention of weight loss and by suppression of the reproduction of hRSV in the mouse lungs by measuring a viral titer in the experimental groups relative to the control on days 5 and 7 after infection.
# In addition, the therapeutic action of the compounds of general formula I was determined by their ability to suppress the reproduction of hRSV in the mouse lungs on days 5 and 7 after infection. The viral titer was determined by the titration of a 10% lung suspension in Hep-2 cell culture. The result was registered 2 days after the incubation at 37° C. by TCID.
# [3] = Rat model of nasopharyngitis induced by formalin (nasal mucosa changes, cell elements in nasal lavage); format: in vivo; settings: Wistar rats, 18 mg/kg for 3 days; for Mucous membrane of nasal passages: Without changes (number of animals): number of animals out of n = 10, control 0 of 20; for Mucous membrane of nasal passages: Discharge mucus from the nasal passages (number of animals): number of animals out of n = 10, control 20 of 20
# Method: Nasopharyngitis was induced by intranasal administration of formalin to each nasal passage of rats.
# The administration of formalin to the nasal passages of rats leads to the dissemination of inflammation to adjacent tissues, resulting in a clinical pattern similar to the symptoms of nasopharyngitis in a human.
# After an acclimatization period, the following groups were formed: • intact animals administered intragastrically a physiological solution in an amount of 0.2 ml, without induction of nasopharyngitis; • a control group consisted of animals administered intragastrically a physiological solution in an amount of 0.2 ml for 3 days after induction of nasopharyngitis; and • animals administered the studied compounds at a dose of 18 mg/kg for 3 days after induction of nasopharyngitis.
# Clinical observation of each animal was performed every day at least twice daily.
# The caused pathology was characterized by hyperplasia, increased number of caliciform cells, pronounced infiltration of mononuclear cells and leucocytes, and mucus hyperproduction by submucosal glands.
# After euthanasia, the inflammation pattern in the nasal passages and throat was studied in each group of animals. The nasal passages were washed with 5 mL of physiological solution and the score of cell elements were counted in 1 μL.
# [4] = tested on: human respiratory syncytial virus (strain A2); assay: Antiviral activity against RS virus in a murine model of suppressed immune system (lung edema); format: in vivo; settings: Balb/c mice, cyclophosphan-suppressed, RS-virus pneumonia; 30 mg/kg once daily for 5 days; M ± SD, n = 5; scores from possible 4
# Method: Antiviral activity of the chemical compounds against human respiratory syncytial virus (strain A2, an infectious titer of 5×10^6 TCID50/mL) was assessed in a Balb/c murine model of viral pneumonia. The virus was inoculated to animals intranasally in a volume of 50 μL under brief ether anesthesia. The immune response in animals to RS virus was suppressed by intraperitoneal administration of cyclophosphan at a dose of 100 mg/kg 5 days before infection. The studied compounds were administered according to the treatment regimen once daily at a dose of 30 mg/kg for 5 days, starting 24 hours after infection. The activity of the compounds was determined by a reduction in edema of the lung infected with respiratory syncytial virus, compared to the control, on day 5 after infection.
# [5] = tested on: Coxsackie A2 virus (strain HCXV A2); assay: Antiviral activity against Coxsackie virus in vivo (mortality and life expectancy of infected mice)
# Method: In the study a trypsin-dependent strain HCXV A2 was used, previously adapted and causing death in mice from Coxsackie virus infection.
# The experiment was carried out in white mice weighing 6 to 7 g. The animals were infected intramuscularly with a dose of 0.1 mL/mouse. The used infectious dose causing mortality in mice was 10LD50.
# The ability of compounds to provide a therapeutic effect was determined by the mortality rate of HCXV A2 virus-infected mice in the experimental group relative to the group of untreated animals.
# The studied compounds and placebo were administered orally according to the treatment regimen. Normal saline solution was administered to mice as placebo. Intact animals served as a negative control and were hold in a separate room under the same conditions as the experimental animals.
# For the experiment, groups were formed with 14-15 animals each. Compounds were administered at a dose of 30 mg/kg of body weight. The studied compounds were administered orally once daily for 7 days (first administration was made 24 hours after infection). The animals were monitored for 15 days during which the animals were weighed and the mortality rate was registered every day.
# [6] = day 5, compounds 30 mg/kg, Ribavirin 40 mg/kg
# [7] = day 7, compounds 30 mg/kg, Ribavirin 40 mg/kg
Compound,mortality at 30 mg/kg [1],"hRSV in the lungs of mice, Day 5, lg ([2]; day 5, 10% lung suspension titrated in Hep-2 cells (TCID), compounds 30 mg/kg, Ribavirin 40 mg/kg)","Body weight of the mice on day 5 after infection with hRSV (M ± SD) [2, 6]","hRSV in the lungs of mice, Day 7, lg ([2]; day 7, 10% lung suspension titrated in Hep-2 cells (TCID), compounds 30 mg/kg, Ribavirin 40 mg/kg)","Body weight of the mice on day 7 after infection with hRSV (M ± SD) [2, 7]","log reduction at 30 mg/kg ([2]; 120 h, read-out: Suppression of the reproduction of hRSV in the lungs of mice, Day 5, Δlg)","log reduction at 30 mg/kg ([2]; 168 h, read-out: Suppression of the reproduction of hRSV in the lungs of mice, Day 7, Δlg)",Mucous membrane of nasal passages: Without changes (number of animals) [3],Mucous membrane of nasal passages: Discharge mucus from the nasal passages (number of animals) [3],"Degree of lung edema on day 5 after infection, score [4]","inhibition in vivo at 30 mg/kg ([5]; Mus musculus, po, 168 h, 30 mg/kg orally once daily for 7 days, vs virus control, read-out: Protective index (%))","mortality at 30 mg/kg ([5]; Mus musculus, po, 360 h, read-out: Total mortality, %)","Average life expectancy (days), Compared with control ([5]; difference vs virus control, 30 mg/kg orally once daily for 7 days)","Average life expectancy (days), Relative ([5]; mice infected with 10LD50 HCXV A2, 30 mg/kg orally once daily for 7 days)"
O=C(O)CCCC(=O)NCCC1CCCNC1 (stereo not shown) [Compound 5],35%,2.17 ± 0.37 lg,16.02 ± 0.16,0.88 ± 0.31 lg,17.78 ± 0.26,2.43 ± 0.37,2.93 ± 0.31,5,5,1.10 ± 0.19 score,–,–,–,–
O=C(O)CCCC(=O)NCCC1CCNCC1 [Compound 7],20%,–,17.17 ± 0.26,–,18.53 ± 0.55,–,–,6,4,–,–,–,–,–
O=C(O)CCCC(=O)NCCc1cc[nH]n1 [Compound 15],30%,–,–,–,–,–,–,7,3,–,–,–,–,–
CC(C)(CCC(=O)NCCc1cnc[nH]1)C(=O)O [Compound 44],40%,–,–,–,–,–,–,4,6,–,55%,28.6%,+20.1 days,32.3 days
CC(NC(=O)C(Cc1cnc[nH]1)NC(=O)CCCC(=O)O)C(N)=O (stereo not drawn) [Compound 92] (Glutaryl-His-Ala-NH2; configuration not given here),25%,–,–,–,–,–,–,6,4,–,–,–,–,–
NCCCC(=O)NCCCc1cccs1 [Compound 100],30%,–,–,–,–,–,–,3,7,–,–,–,–,–
